In ChEMBL document CHEMBL1221247, “Oxidative stimuli-responsive nanoprodrug of camptothecin kills glioblastoma cells” (2010):
Activity calls are given as the source filed them. The calls are words filed in the database; no cut-off is given here.

Assays:
[1] = tested on: U-87MG ATCC; assay: Cytotoxicity against human U87MG cells at 250 nM after 6 days; type: functional, cell-based
[2] = Cytotoxicity against human U87MG cells after 6 days; type: functional, U-87MG ATCC; conditions: U-87 MG, 144 h, read-out: LD50 (the source's name)

| SMILES | Activity [1] | CC50 [2] |
| --- | --- | --- |
| CC[C@@]1(OC(=O)OCCOCCOCCOCCOC(=O)CCCC[C@@H]2CCSS2)C(=O)OCc2c1cc1n(c2=O)Cc2cc3ccccc3nc2-1 | Active | 20 nM |
| CC[C@@]1(O)C(=O)OCc2c1cc1n(c2=O)Cc2cc3ccccc3nc2-1 [CAMPTOTHECIN] | Active | 20 nM |
